Assay results from PubChem BioAssay (NCI).
Values joined by “and” are separate entries in the source; they are usually repeats but may differ in a detail not shown here. Equal values may be shown once.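 Test compounds were applied to cells in 96-well plates for 48 hours at 5 doses. GI50: concentration for 50% inhibition of growth. The concentration for full growth arrest is given as TGI.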

Experiments:
Assay in all cases: growth of human tumour cells (NCI), 48 h
[1] = test system: HOP-62 NSCLC
[2] = test system: COLO 205 colon
[3] = test system: SF-539 CNS
[4] = test system: SK-MEL-2 melanoma
[5] = test system: OVCAR-8 ovarian
[6] = test system: SF-268 CNS
[7] = test system: CCRF-CEM leukemia
[8] = test system: MALME-3M melanoma
[9] = test system: EKVX NSCLC
[10] = test system: OVCAR-3 ovarian

Compound | TGI [1] | TGI [2] | TGI [3] | TGI [4] | TGI [5] | TGI [6] | TGI [7] | TGI [8] | TGI [9] | TGI [10] | GI50 [1] | GI50 [2] | GI50 [3] | GI50 [4] | GI50 [5] | GI50 [6] | GI50 [7] | GI50 [8] | GI50 [9] | GI50 [10]
Cc1cccc(C)c1NC(=O)C(=O)Nn1c(NN)nc2ccccc2c1=O | > 100 µM | > 100 µM | > 100 µM | > 100 µM | > 100 µM | > 100 µM | > 100 µM | > 100 µM | > 100 µM | > 100 µM |  |  |  |  |  |  |  |  |  | 
CC(C)CC(NC(=O)OC(C)(C)C)C(=O)Nc1ccc(Nc2nc(F)nc(-c3c4ccccc4cn3C)n2)cc1 (stereo not given) | 42.6 µM | 49.3 µM | > 100 µM | > 100 µM | > 100 µM | > 100 µM | > 100 µM | > 100 µM | > 81.1 µM | 63 µM |  |  |  |  |  |  |  |  |  | 
COc1cc(Nc2ncc(F)c(Nc3ccc4c(n3)N(COP(=O)(O)O)C(=O)C(C)(C)O4)n2)cc(OC)c1OC | 10.2 µM and 7.37 µM | 5.37 µM and 3.59 µM | 1.94 µM and 1.81 µM | 53.3 µM and > 10 µM | 16.5 µM and > 10 µM | 5.22 µM and 3.73 µM | 44.8 µM and > 10 µM | 17.8 µM and > 10 µM | 13.7 µM and > 10 µM | 33.6 µM and > 10 µM | 2.25 µM and 0.753 µM | 2.03 µM and 1.31 µM | 0.605 µM and 0.454 µM | 5.81 µM | 3.33 µM and 3.07 µM | 1.45 µM and 1.04 µM | 3.09 µM and 3.84 µM | 3 µM and 5.93 µM | 2.19 µM and 1.93 µM | 2.66 µM and 2.71 µM
COC(=O)c1c2cccccc-2c(Cc2c3cccccc-3c(C(=O)OC)c2O)c1O | > 100 µM | > 100 µM | > 100 µM | > 100 µM | > 100 µM | > 100 µM | > 100 µM | > 100 µM | > 100 µM | > 100 µM |  |  |  |  |  |  |  |  |  | 
CCNC(=O)O[C@H]1CN[C@H](C#Cc2cc3ncnc(Nc4ccc(OCc5cccc(F)c5)c(Cl)c4)c3s2)C1 | > 25 µM | > 17.7 µM | > 18.4 µM | 24.9 µM | > 25 µM | > 25 µM | > 25 µM | 11.7 µM | > 14.8 µM | 16.7 µM | 14.9 µM | 6.9 µM | 5.77 µM | 6.1 µM | 6.25 µM | 6 µM | 2.91 µM | 3.99 µM | 0.668 µM | 3.77 µM
C[N+]1=C(/C=C\C=C\c2ccccc2)C(C)(C)c2ccccc21 | 15.1 µM | 2.26 µM | 7.57 µM | 4.31 µM | 10.5 µM | 12.1 µM | 7.76 µM | 4.37 µM | 14.4 µM | 2.81 µM | 4.1 µM | 0.686 µM | 2.59 µM | 1.69 µM | 2.11 µM | 3.33 µM | 2.36 µM | 1.87 µM | 2.42 µM | 1.08 µM
CN(Cc1cc(C(C)(C)C)cc(Br)c1O)Cc1cc(C(C)(C)C)cc(Br)c1O | 15.5 µM | 28.4 µM | 7.66 µM | 5.86 µM | 15.3 µM | 11.2 µM | 10.4 µM | 13.7 µM | 12.7 µM | 6.73 µM |  |  |  |  |  |  |  |  |  | 
